From US20040024024A1, “Aromatic sulfone hydroxamates and their use as protease inhibitors” (priority 2001, published 2004)

Key:
Experiment in all cases: In vitro MMP inhibition, IC50 determination (fluorogenic substrate I)
Assay type in all cases: biochemical
Details in all cases: value outside parentheses (Ki in parenthesis)
[1] = biological target: T1, Human recombinant MMP-9 (Homo sapiens, UniProt P14780)
T1 construct: made in house; host or cells: MMP-9-transfected HT1080 cells (spent media)
Outline: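 Reduction in fluorescence (328 nm excitation, 415 nm emission) from cleavage of 4 μM quenched peptide substrate I, measured at room temperature against inhibitor concentration, gave IC50. Enzyme: trypsin- or APMA-activated MMP-9 purified from transfected HT1080 medium; buffer 100 mM Tris, 100 mM NaCl, 10 mM CaCl2, pH 7.5.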

[2] = biological target: T2, Human recombinant MMP-1 (Homo sapiens, UniProt P03956)
T2 construct: made in house; host or cells: MMP-1-transfected HT-1080 cells (spent media)
T2 sequence (P03956 100-469): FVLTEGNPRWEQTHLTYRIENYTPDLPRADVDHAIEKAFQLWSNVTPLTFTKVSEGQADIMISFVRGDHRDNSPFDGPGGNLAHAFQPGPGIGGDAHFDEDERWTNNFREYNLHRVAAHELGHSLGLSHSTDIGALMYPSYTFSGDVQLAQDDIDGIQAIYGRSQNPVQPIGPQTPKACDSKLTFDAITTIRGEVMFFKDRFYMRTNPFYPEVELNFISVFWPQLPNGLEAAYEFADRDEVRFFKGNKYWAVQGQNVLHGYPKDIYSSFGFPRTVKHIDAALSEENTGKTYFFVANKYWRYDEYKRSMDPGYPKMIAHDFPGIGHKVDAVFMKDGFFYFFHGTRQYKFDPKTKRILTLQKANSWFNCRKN
Outline: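 Inhibitor dilutions were made in 100 mM Tris-HCl/100 mM NaCl/10 mM CaCl2 buffer, pH 7.5, and incubated at room temperature with activated proenzyme (from transfected HT-1080 media; APMA or trypsin) and 4 μM quenched methoxycoumarin peptide substrate. Loss of 415 nm fluorescence (328 nm excitation) against concentration gave IC50.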

[3] = biological target: T3, Human recombinant MMP-13 (Homo sapiens, UniProt P45452)
T3 construct: made in house; host or cells: baculovirus / insect cells
Outline: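 Fluorescence at 415 nm (excitation 328 nm) reports Gly-Leu cleavage of 4 μM quenched methoxycoumarin peptide substrate I. Human recombinant MMP-13, activated by trypsin or APMA, was incubated at room temperature with varied inhibitor concentrations in pH 7.5 Tris/NaCl/CaCl2 buffer; IC50 derived from reduced fluorescence.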

[4] = biological target: T4, Human recombinant MMP-2 (Homo sapiens, UniProt P08253)
T4 construct: made in house; host or cells: MMP-2-transfected p2AHT2 cells
T4 sequence (P08253 110-660): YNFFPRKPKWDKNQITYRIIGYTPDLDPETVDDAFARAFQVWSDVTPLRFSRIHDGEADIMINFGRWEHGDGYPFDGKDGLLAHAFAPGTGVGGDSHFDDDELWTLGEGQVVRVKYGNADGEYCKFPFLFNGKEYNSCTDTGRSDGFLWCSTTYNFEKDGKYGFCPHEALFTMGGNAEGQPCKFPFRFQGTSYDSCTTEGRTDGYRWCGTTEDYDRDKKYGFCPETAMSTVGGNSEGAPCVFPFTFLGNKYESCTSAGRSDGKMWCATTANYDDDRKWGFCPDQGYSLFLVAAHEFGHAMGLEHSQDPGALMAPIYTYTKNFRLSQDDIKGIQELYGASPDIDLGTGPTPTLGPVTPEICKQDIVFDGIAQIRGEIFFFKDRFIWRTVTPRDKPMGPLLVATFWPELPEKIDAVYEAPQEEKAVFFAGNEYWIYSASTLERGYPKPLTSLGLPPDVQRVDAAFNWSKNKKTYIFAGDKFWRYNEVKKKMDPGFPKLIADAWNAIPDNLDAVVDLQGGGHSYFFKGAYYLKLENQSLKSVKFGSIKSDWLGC
Outline: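 IC50 was derived from the concentration-dependent fall in fluorescence (ex 328, em 415 nm) on Gly-Leu cleavage of 4 μM MCA/Dpa-quenched substrate I. Assays ran at room temperature in pH 7.5 Tris/NaCl/CaCl2/Brij buffer with MMP-2 activated by trypsin or APMA; inhibitors were diluted from 1% DMSO stocks.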

[5] = biological target: T5, Human recombinant MMP-14 (Homo sapiens, UniProt P50281)
T5 construct: The catalytic domain enzyme was expressed in E. coli inclusion bodies, solubilized in urea; made in house
Outline: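 IC50 came from reduced fluorescence (ex 328 nm, em 415 nm) as inhibitor concentration rose, with 4 μM substrate I cleaved at Gly-Leu. Room-temperature incubation in pH 7.5 Tris buffer with 10 mM CaCl2; the E. coli-expressed, refolded MMP-14 catalytic domain was activated with trypsin or APMA.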

T1 sequence (P14780 107-707 limits assumed): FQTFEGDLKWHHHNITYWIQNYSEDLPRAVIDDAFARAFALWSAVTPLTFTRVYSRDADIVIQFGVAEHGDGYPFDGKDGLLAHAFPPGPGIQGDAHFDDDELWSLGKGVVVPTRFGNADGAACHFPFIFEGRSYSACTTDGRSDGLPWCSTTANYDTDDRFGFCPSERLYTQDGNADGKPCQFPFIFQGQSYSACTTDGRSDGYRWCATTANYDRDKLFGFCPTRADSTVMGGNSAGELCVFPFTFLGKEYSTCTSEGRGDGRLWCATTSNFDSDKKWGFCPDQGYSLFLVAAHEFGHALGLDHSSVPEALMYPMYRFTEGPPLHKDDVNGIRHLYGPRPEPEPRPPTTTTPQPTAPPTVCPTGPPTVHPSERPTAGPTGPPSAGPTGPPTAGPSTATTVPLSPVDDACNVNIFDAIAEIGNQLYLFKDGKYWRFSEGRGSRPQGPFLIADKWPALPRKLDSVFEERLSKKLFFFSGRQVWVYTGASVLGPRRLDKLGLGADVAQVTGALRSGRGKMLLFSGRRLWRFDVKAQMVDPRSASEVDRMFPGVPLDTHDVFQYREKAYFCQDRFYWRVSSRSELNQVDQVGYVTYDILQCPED

Compound	IC50 [1] [nM]	IC50 [2] [nM]	IC50 [3] [nM]	IC50 [4] [nM]	IC50 [5] [nM]
COc1ccc(C(=O)N2CCC(COc3ccc(S(=O)(=O)C4(C(=O)NO)CCOCC4)cc3)CC2)cc1 [Example 420]	> 10000	> 10000	4	67	> 10000
CC(C)(COc1ccc(S(=O)(=O)C2(C(=O)NO)CCOCC2)cc1)CSc1ccccc1 [Example 437]	> 10000	> 10000	90	> 10000	> 10000
CC(C)(COc1ccc(S(=O)(=O)C2(C(=O)NO)CCOCC2)cc1)CS(=O)(=O)Cc1ccccc1 [Example 438]	3800	> 10000	11	505	> 10000
O=C(NO)C1(S(=O)(=O)c2ccc(OCCCSCc3ccccc3)cc2)CCOCC1 [Example 439]	6000	> 10000	25	2000	> 10000
CC(C)(COc1ccc(S(=O)(=O)C2(C(=O)NO)CCOCC2)cc1)CS(=O)(=O)Cc1cccc(OC(F)(F)F)c1 [Example 440]	140	> 10000	1	4	2500
O=C(NO)C1(S(=O)(=O)c2ccc(OCCCOc3cccc(C(F)(F)F)c3)cc2)CCN(C2CC2)CC1 [Example 443]	375	> 10000	3.5	25	2430
O=C(NO)C1(S(=O)(=O)c2ccc(OCCCOc3ccc4ccccc4c3)cc2)CCOCC1 [Example 448]	116	3080	2.7	9	832
COc1cc(COCCCOc2ccc(S(=O)(=O)C3(C(=O)NO)CCOCC3)cc2)cc(OC)c1 [Example 453]	800	> 10000	3	13	5000
CCCCOCCCNc1ccc(S(=O)(=O)C2(C(=O)NO)CCOCC2)cc1 [Example 460]	700	> 10000	25	145	> 10000
COc1ccc(CCCOc2ccc(S(=O)(=O)C3(C(=O)NO)CCOCC3)cc2)cc1 [Example 465]	180	> 10000	0.3	4	1800

Now those with a lower IC50 [1], led by results:

IC50 [1] [nM]	IC50 [2] [nM]	IC50 [3] [nM]	IC50 [4] [nM]	IC50 [5] [nM]	Compound
110	9000	2	13	2290	O=C(NO)C1(S(=O)(=O)c2ccc(OCCCSCc3cccc(OC(F)(F)F)c3)cc2)CCOCC1 [Example 441]
5.4	> 10000	1.8	6.2	997	COc1ccc(OCCCOc2ccc(S(=O)(=O)C3(C(=O)NO)CCN(C4CC4)CC3)cc2)cc1 [Example 442]
44	3320	0.5	2.2	546	O=C(NO)C1(S(=O)(=O)c2ccc(OCCCOc3ccc(F)cc3F)cc2)CCOCC1 [Example 445]
12.2	> 10000	2	8.9	1360	COc1ccc(OCCCOc2ccc(S(=O)(=O)C3(C(=O)NO)CCOCC3)cc2)cc1 [Example 447]
41	1930	7	3.7	58	O=C(NO)C1(S(=O)(=O)c2ccc(OCCCO)cc2)CCOCC1 [Example 449]
44	> 10000	0.9	6.6	4940	COc1ccc(OCCCCOc2ccc(S(=O)(=O)C3(C(=O)NO)CCOCC3)cc2)cc1 [Example 450]
18	> 10000	7	11	6500	O=C(NO)C1(S(=O)(=O)c2ccc(NCCCCc3ccccc3)cc2)CCOCC1 [Example 462]
45	> 10000	15	110	> 10000	COc1ccc(CCCOc2ccc(S(=O)(=O)C3(C(=O)NO)CCOCC3)cc2)cc1OC [Example 466]
